# Reference: patent US7273723B2, “Antibiotic-based gene regulation system” (priority 2001, dated 2007)
# Columns and labels:
# [1] = test system: erythromycin-dependent transactivators ET (MphR(A) fusions) / PETR promoters; assay: SEAP reporter assay, CHO-K1 transiently cotransfected with ET transactivator and PETR-SEAP plasmids; assay type: cell-based, Chinese hamster
# Method: (§1) Chinese hamster ovary cells (CHO-K1, ATCC: CCL 61), and HeLa cells (ATCC: CRL-7923) as well as stable cell lines derived thereof were cultured as described before (Fussenegger et al., 1998, Nat. Biotechnol. 16,468-472) in the presence of appropriate antibiotics: G418 400 μg/ml; zeocin 100 μg/ml. Optimized CaPO4 protocols were used for high efficiency transient transfection of all cell lines (Fussenegger et al., 1998. Nat. Biotechnol. 16: 468-472). Transiently transfected cells were routinely analyzed after 48 h for CFP or SEAP expression using fluorescence microscopy and p-nitrophenolphosphate-based light absorbance timecourse, respectively, as described before (Fussenegger et al., 1998, Nat. Biotechnol. 16, 468-472; Berger et al., 1988, Gene 66, 1-10 b). For construction of stable CHO-ET1 and CHO-Triplet42 cell lines, CHO-Ki and CHO-TWIN1108 (Disclosed in PCT application no. 00/65080) were cotransfected with pWW35 and pZeoSV2 (invitrogen). CHO-ET11-SEAP was constructed by cotransfection of pWW38 and pSV2neo (Clontech) into CHO-ET11. The mixed populations were cloned using FACS-mediated single-cell-sorting (FACStar^Plus; Beckton Dickinson). For assessment of dose-response characteristics of PETR3-regulated gene expression, CHO-ET11-SEAP were cultured at cell densities of 50,000/ml for 48 h at various EM concentrations.
# (§2) Other antibiotics were eluted from antibiotic test discs (Mast Diagnostica GmbH, Reinfeld, Germany, or bioMérieux, Geneva Switzerland) in cell culture medium at 37° C. for 12 h to reach a final concentration of 30 μg/ml. All macrolide antibiotics were used at a 2 μg/ml concentration unless indicated otherwise.
# In order to analyze the potential of the MphR(A)/ETR system for the design of a novel mammalian gene regulation system, we adapted these regulatory elements for use in a eukaryotic context by construction of a set of two chimeric determinants: the EM-inhibited transactivators (ET, MphR(A) fused to different eukaryotic transactivation domains: ET1: MphR(A)-VP16; ET2: MphR(A)-p65; ET3: MphR(A)-E2F4) and the EM-responsive promoter (PETR3) (ETR fused to the minimal cytomegalovirus PhCMVmin; Gossen et al., (1992). Proc. Natl. Acad. Sci. USA 89, 5547-5551). […] CFP-expression could only be detected when pWW44 was cotransfected with an ET1-encoding pWW35, showing that the chimeric ET1 protein functions as a transactivator for PETR3 in mammalian cells.
# To analyze the regulatory performance of promoters PETR1 and PETR4, an ET1-encoding vector (pWW35) was cotransfected with pWW36 and pWW39 into CHO-K1 cells. […] The results are shown in Table 6 together with the values of an ET1/PETR3 transfection (Table 5) for better comparison.
# [2] = target: T1, tTA / tetracycline-responsive promoter PhCMV*-1 (Escherichia coli, UniProt P04483); assay: SEAP assay in CHO-Triplet42 transfected with PhCMV*-1-SEAP (pMF111); assay type: cell-based; details: CHO-Triplet42 + pMF111 (PhCMV*-1); antibiotic 2 μg/ml; 48 h
# T1 construct: expressed in transfected cells; host or cells: CHO-Triplet42 (from CHO-TWIN1108)
# Method: as §1, §2
# [3] = test system: transrepressors MphR(A) or ET4 (MphR(A)-KRAB) / PETRON promoters; assay: Erythromycin-inducible EON system, SEAP assay in transiently cotransfected CHO-K1; assay type: cell-based; details: for SEAP activity [U/L] +Erythromycin [2 μg/ml]: CHO-K1, 48 hrs, title: erythromycin (2 μg/ml)
# Text: The classical ET/PETR system belongs to the “OFF” family of regulation concepts since gene expression is activated upon withdrawal of the regulating antibiotic. However, in some applications such as gene therapy and tissue engineering an “ON” system that is induced upon addition of macrolide antibiotics is more desirable. We therefore constructed a new MphR(A)-based binary EON system which consists of a PETRON promoter and a set of two different transrepressors. Two different PETRON promoters were constructed: PETRON4 consists of an ETR4 (four tandem repetitions of ETR, SEQ ID NO 26) placed downstream of the strong viral SV40 promoter. PETRON8 contains eight tandem repetitions (SEQ ID NO 27) of ETR instead of four.
# Transrepressors such as ET4 (SEQ ID NO 10, example 1, FIG. 2), which consists of a protein fusion between MphR(A) and the KRAB silencing domain of the human kox-1 gene (Deuschle et al., 1995, Mol. Cell Biol. 15: 1907-1914) or MphR(A) alone, bind to ETR in front of PSV40 and block transcription of this promoter. Besides sterical transcription blocking, the silencing domain of ET4 can additionally downregulate PSV40 activity.
# The ETR4 sequence (SEQ ID NO: 26) was excised from the WEBE Gene vector (custom synthesized by Operon Technologies Inc.) by SfuI and EcoRI and ligated into the corresponding sites of pMF208 (Fussenegger et al., 2000. supra) thus resulting in plasmid pWW55 (FIG. 7) containing the PSV40-ETR4-SEAP cassette. The combination of PSV40 and ETR4 is designated PETRON4. For construction of PETRON8, ETR4 was excised (PmeI/EcoRI) from pWW55 and cloned into pWW55 restricted with (EcoRV/EcoRI) thus resulting in SV40-ETR8-SEAP (pWW56).
# ET4, the MphR(A)-KRAB fusion protein was constructed as described in example 1 (SEQ ID NO 10). For expression of MphR(A) pWW29 (SEQ ID NO 4) was used. The stop codon of the original MphR(A) has been mutated in order to allow fusion to the various transactivating and transrepressing domains. Because of the mutation of this stop codon the mphR(A) gene contained in pWW29 is terminated a few bp downstream at the next stop codon encountered in the vector sequence. However, the resulting MphR(A) protein preserves its role as transcriptional repressor in the EON configuration.
# The regulation performance of PETRON4 (PSV40-ETR4-SEAP-pA; pWW55) and PETRON8 (PSV40-ETR8-SEAP-pA; pWW56) was assessed in CHO-K1 cells harboring the MphR(A) expression vector pWW29 (PEF1α-E-pA) (Table 7).
# [4] = test system: PETR1-YFP and PhCMV*-1-CFP expression units; assay: Dual-regulated vector pDuoRex9 (pWW94) in CHO-Triplet42 by fluorescence microscopy; assay type: cell-based; details: transient transfection into CHO-Triplet42
# T1 sequence (P04483 whole entry, added parts left off): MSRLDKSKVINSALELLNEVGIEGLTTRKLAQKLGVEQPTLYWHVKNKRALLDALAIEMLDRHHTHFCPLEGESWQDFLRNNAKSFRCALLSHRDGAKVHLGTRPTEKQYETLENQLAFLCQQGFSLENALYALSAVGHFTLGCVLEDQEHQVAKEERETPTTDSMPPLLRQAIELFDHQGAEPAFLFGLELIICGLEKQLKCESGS
smiles,measurement,setting,value
CC[C@H]1OC(=O)[C@H](C)[C@@H](O[C@H]2C[C@@](C)(OC)[C@@H](O)[C@H](C)O2)[C@H](C)[C@@H](O[C@@H]2O[C@H](C)C[C@H](N(C)C)[C@H]2O)[C@](C)(O)C[C@@H](C)C(=O)[C@H](C)[C@@H](O)[C@]1(C)O [Erythromycin],SEAP activity [U/L] + Erythromycin [10 μg/ml],"[1]; CHO + pBP37 + pWW38 (ET5 + PETR3), 48 hr",12.1 ± 1.5 U/L
same,SEAP activity [U/L] + Erythromycin [10 μg/ml],"[1]; CHO + pBP38 + pWW38 (ET6 + PETR3), 48 hr",5.8 ± 0.5 U/L
same,SEAP activity [U/L] + Erythromycin [10 μg/ml],"[1]; CHO + pBP39 + pWW38 (ET7 + PETR3), 48 hr",2.3 ± 0.2 U/L
same,SEAP activity [U/L] + Erythromycin [10 μg/ml],"[1]; CHO + pWW35 + pWW36 (ET1 + PETR1-SEAP), 48 hrs",5.3 ± 0.6 U/L
same,SEAP activity [U/L] + Erythromycin [10 μg/ml],"[1]; CHO + pWW35 + pWW38 (ET1 + PETR3), 48 hr post transfection",5.2 ± 0.5 U/L
same,SEAP activity [U/L] + Erythromycin [10 μg/ml],"[1]; CHO + pWW35 + pWW39 (ET1 + PETR4-SEAP), 48 hrs",29.3 ± 0.6 U/L
same,SEAP activity [U/L] + Erythromycin [10 μg/ml],"[1]; CHO + pWW42 + pWW38 (ET2 + PETR3), 48 hr",2.5 ± 0.6 U/L
same,SEAP activity [U/L] + Erythromycin [10 μg/ml],"[1]; CHO + pWW64 + pWW38 (ET3 + PETR3), 48 hr",1.0 ± 0.4 U/L
same,SEAP activity [U/L],[2],195.1 ± 15.1 U/L
same,SEAP activity [U/L] +Erythromycin [2 μg/ml],[3]; PETR-ON4 + ET4,35.7 ± 4.7 U/L
same,SEAP activity [U/L] +Erythromycin [2 μg/ml],[3]; PETR-ON4 + MphR(A),175.7 ± 6.2 U/L
same,Induction factor (expression in induced state to expression in repressed state),[3]; PETR-ON4 repressed by MphR(A),~5
same,SEAP activity [U/L] +Erythromycin [2 μg/ml],[3]; PETR-ON8 + ET4,55.4 ± 1.8 U/L
same,SEAP activity [U/L] +Erythromycin [2 μg/ml],[3]; PETR-ON8 + MphR(A),81.6 ± 4.3 U/L
same,Induction factor (expression in induced state to expression in repressed state),[3]; PETR-ON8 repressed by MphR(A),~5
same,YFP and CFP expression from pDuoRex9 (fluorescence microscopy),[4],independent on/off-regulation
